Data reported in ChEMBL document CHEMBL1132890, “Prediction of drug solubility from Monte Carlo simulations” (Bioorg Med Chem Lett, 2000).

Settings: buffer

SMILES | Log S
Oc1cccc(Cl)c1Cl | -1.3
Clc1c(Cl)c(Cl)c(-c2ccccc2)c(Cl)c1Cl | -7.78
COC(=O)[C@@H]1C2CC[C@@H](C[C@@H]1OC(=O)c1ccccc1)N2C (single isomer, unassigned) [COCAINE] | -2.25
COC(C)=O [ACETIC ACID METHYL ESTER] | 0.46
CCO [ALCOHOL] | 1.1
Nc1ccccc1 [ANILINE] | -0.41
COc1ccccc1 [ANISOLE] | -1.85
NC(=O)c1ccccc1 [BENZAMIDE] | -0.96
O=C(O)c1ccccc1 [BENZOIC ACID] | -1.55
c1ccc(-c2ccccc2)cc1 [BIPHENYL] | -4.35
C=C(C)C1CC=C(C)C(=O)C1 (centres undefined) [CARVONE] | -2.06
CN(C)CCCN1c2ccccc2Sc2ccc(Cl)cc21 [CHLORPROMAZINE] | -5.1
c1ccc2c(c1)oc1ccccc12 [DIBENZOFURAN] | -4.6
CC/C(=C(/CC)c1ccc(O)cc1)c1ccc(O)cc1 [DIETHYLSTILBESTROL] | -4.07
O=C(O)Cc1ccccc1Oc1ccc(Cl)cc1Cl [FENCLOFENAC] | -3.85
COC1=CC(=O)C[C@@H](C)[C@]12Oc1c(Cl)c(OC)cc(OC)c1C2=O [GRISEOFULVIN] | -4.07
CCCCCC [HEXANE] | -3.84
c1ccc2[nH]ccc2c1 [INDOLE] | -1.21
O=C1Nc2ccc(Cl)cc2C(c2ccccc2Cl)=NC1O (centres undefined) [LORAZEPAM] | -3.6
C1COCCN1 [MORPHOLINE] | 1.97
O=[N+]([O-])c1ccccc1 [NITROBENZENE] | -1.8
O=C1CN(/N=C/c2ccc([N+](=O)[O-])o2)C(=O)N1 [NITROFURANTOIN] | -3.38
CCOC(=O)NCCOc1ccc(Oc2ccccc2)cc1 [PHENOXYCARB] | -4.7
CCCO [PROPANOL] | 0.62
c1ccc2ncccc2c1 [QUINOLINE] | -1.3
O=C(O)c1ccccc1O [SALICYLIC ACID] | -1.82
Cc1ccccc1 [TOLUENE] | -2.21
CC(=O)CC(c1ccccc1)c1c(O)c2ccccc2oc1=O (centres undefined) [WARFARIN] | -4.26
Cc1ccc(O)cc1 [p-CRESOL] | -0.73
